From patent publication US20220073910A1, “A Cross-Linking Approach to Map Small Molecule-RNA Binding Sites in Cells” (priority 2019, published 2022)
Starred links: 1 amine or outer side, 2 acyl side, 3 side chain; linkers in the order of their positions; H or OH if unused. Non-standard residues stand in square brackets, D forms with d. Residues, ends and D or L forms follow the SMILES beside them. *: point of attachment. Biotinyl(3aR,4R,6aS) = O=C1N[C@@H]2[C@@H](CS[C@@H]2CCCCC(=O)*)N1; N(2-Aminoethyl)Gly = O=C(CN(CCN[*:3])[*:1])[*:2]; Chlorambucil = O=C(CCCc1ccc(N(CCCl)CCCl)cc1)*; Gly(N-propargyl) = C#CCNCC(=O)O; NPrGly = CCCNCC(=O)O

What was measured:
[1] = tested on: pri-miR-96 (Drosha processing); assay: RT-qPCR of mature miR-96 and pri-miR-96 levels in MDA-MB-231 TNBC cells; type: cell-based; settings: MDA-MB-231 cells, 50 nM
Method: (§1) A—Effects of compounds 1 and 2 (50 nM) on mature miR-96 and pri-miR-96 levels. B—Effects of compounds 1 and 2 (50 nM) on FOXO1 protein expression. C— Profiling of miRNAs predicted to target FOXO1 mRNA by TargetScan in compound 2-treated MDA-MB-231 cells. D—Volcano plot profiling the effect of compound 2 on all miRNAs that are expressed in MDA-MB-231 cells (blue circles are miRNAs predicted to target FOXO1 mRNA by TargetScan). E—Effects of compounds 1, 2, and 3 on Caspase 3/7 activity, indicative of apoptosis, in MDA-MB-231 TNBC cells. F—Effects of compounds 1, 2, and 3 on Caspase 3/7 activity, indicative of apoptosis, in MCF-10A normal breast epithelial cells.

FOXO1 protein = FOXO1 protein expression in MDA-MB-231 cells; type: cell-based; settings: 50 nM
Method: as §1
(§2) Since miR-96 suppresses apoptosis in cancer cells by repressing the translation of Forkhead box 01 (FOXO1) transcription factor,^15 the effects of 1, 2, and 3 on FOXO1 protein levels were measured in MDA-MB-231 cells. […] To validate that the increase in FOXO1 levels was mediated by inhibition of miR-96, we studied the effects of 1 and 2 on all 15 miRNAs predicted to target the FOXO1 3′ untranslated region (UTR) by TargetScan (FIG. 3C). […] To further probe 2's selectivity for pri-miR-96, we performed an unbiased profiling experiment on 373 miRNAs expressed in MDA-MB-231 TNBC cells (based on Qiagen miRNA Human miRbase profiler HC).

[2] = tested on: miRNAs predicted to target FOXO1 mRNA; assay: Profiling of 15 miRNAs predicted by TargetScan to target FOXO1 3' UTR; type: cell-based; settings: MDA-MB-231 cells
Method: as §1, §2

MDA-MB-231 TNBC cells = assay: Caspase 3/7 activity (apoptosis) in MDA-MB-231 TNBC cells; type: cell-based; settings: MDA-MB-231 cells
Method: as §1
(§3) We next studied the ability of 1 and 2 to trigger apoptosis, i.e., reverse phenotype, in MDA-MB-231 by measuring Caspase activity. […] Compound 3 had no effect on Caspase activity, as expected. […] Thus, the covalent compounds show relative selectivity for cancerous over healthy breast cells.

MCF-10A cells = assay: Caspase 3/7 activity (apoptosis) in MCF-10A normal breast epithelial cells; type: cell-based; settings: healthy breast epithelial MCF-10A cells
Method: as §1, §3

pri-miR-96 [3] = settings: in vitro, cited from earlier work; for pulldown of pri-miR-96 adducts with streptavidin beads: radioactively labeled pri-miR-96 RNA
pri-miR-96 [4] = settings: in cells, cited from earlier work
[5] = tested on: 373 miRNAs expressed in MDA-MB-231 TNBC cells; assay: Unbiased profiling of 373 miRNAs expressed in MDA-MB-231 TNBC cells; type: cell-based; settings: Qiagen miRNA Human miRbase profiler HC
Method: as §1, §2

pri-miR-96 [6] = assay: Chem-CLIP-Map-Seq binding site mapping within pri-miR-96 in MDA-MB-231 TNBC cells; type: cell-based; settings: MDA-MB-231 cells, 1000 nM
Text: A—Scheme of amplification approach to identify small molecule binding site in pri-miR-96. B— In cellulis mapping of the binding site for compound 2 within pri-miR-96 in MDA-MB-231 TNBC cells. Percentages indicate the number of sequences observed terminating at the respective nucleotide adjacent to the percentage.
Given the enrichment of pri-miR-96 in the pulled down fraction and 2's pro-apoptotic properties, we mapped 2's binding site within pri-miR-96 in cells. We defined 2's cellular binding site within pri-miR-96. […] After reverse transcription, ssDNA adaptors were ligated to the cDNA, followed by which was cloned into NEB's pminiT 2.0 vector and sequenced. Mirroring the predicted and validated (via nuclease mapping^14) binding site, 2's binding site was localized to nucleotides that are proximal to pri-miR-96's Drosha site (FIG. 4B). In particular, the most occupied binding site observed is a C residue four nucleotides upstream of the UU internal loop bound by 1 (54%; highlighted in red in FIG. 4). Two other reactions sites were observed: (i) a G residue in the GG internal loop that binds 1 (14%); and (ii) a U residue 13 nucleotides upstream of the UU internal loop that is part of the Drosha processing site (24%). To support our cellular mapping experiments, we modeled 2 bound to pri-miR-96 (FIG. 4B). Indeed, the distance between 2's cross-linking module and the most reacted nucleotides match precisely.

Compound | increase in pri-miR-96 abundance [1] | mature miR-96 levels [1] | FOXO1 protein expression (FOXO1 protein) | effect on all 15 miRNAs predicted to target the FOXO1 3' UTR [2] | Caspase activity indicative of apoptosis (MDA-MB-231 TNBC cells) | Caspase activity indicative of apoptosis (MCF-10A cells) | competition of pri-miR-96 pulldown by 2 (C-Chem-CLIP) (pri-miR-96 [3]; constant 2 (1000 nM), increasing amounts of 1) | competition of pri-miR-96 pulldown (cellular C-Chem-CLIP) (pri-miR-96 [4]; increasing concentration of 1) | selectivity profiling on 373 miRNAs (volcano plot) [5] | sequences terminating at reaction site: C residue four nucleotides upstream of the UU internal loop (pri-miR-96 [6]) [%] | sequences terminating at reaction site: G residue in the GG internal loop (pri-miR-96 [6]) [%] | sequences terminating at reaction site: U residue 13 nucleotides upstream of the UU internal loop (Drosha processing site) (pri-miR-96 [6]) [%] | pulldown of pri-miR-96 adducts with streptavidin beads (pri-miR-96 [3]) | enrichment of pri-miRNA-96 in the pulled down fraction (pri-miR-96 [4]; compared to sample prior to incubation with streptavidin beads, RT-qPCR) [fold]
CCCN(CC(=O)N(CCC)CC(=O)N(CC(N)=O)Cc1cn(CCCNC(=O)CCCOc2c(C(C)(C)C)cc(-c3nc4cc(N5CCN(C)CC5)ccc4[nH]3)cc2C(C)(C)C)nn1)C(=O)CCCOc1cccc(-c2nc3ccc(-c4nc5cc(N6CCN(C)CC6)ccc5[nH]4)cc3[nH]2)c1 [compound 1, Targaprimir-96] | ca. 1.5 fold | reduced | enhanced the expression of FOXO1 protein | Only miR-96 was inhibited significantly | increased Caspase activity | neither 1 nor 2 had any effect | 1-dependent decrease in the amount of RNA pulled down by 2 | decreased as a function of the concentration of 1 | – | – | – | – | – | –
CCCN(CC(=O)N(CC(=O)N(CCNC(=O)CCCC[C@H]1SC[C@H]2NC(=O)N[C@H]21)CC(N)=O)Cc1cn(CCCNC(=O)CCCOc2c(C(C)(C)C)cc(-c3nc4cc(N5CCN(C)CC5)ccc4[nH]3)cc2C(C)(C)C)nn1)C(=O)CN(CCNC(=O)CCCc1ccc(N(CCCl)CCCl)cc1)C(=O)CCCOc1cccc(-c2nc3ccc(-c4nc5cc(N6CCN(C)CC6)ccc5[nH]4)cc3[nH]2)c1 [compound 2] | ca. 1.5 fold | reduced to a similar extent as the parent compound 1 | enhanced the expression of FOXO1 protein | Only miR-96 was inhibited significantly | increased Caspase activity | neither 1 nor 2 had any effect | – | – | miR-96 was the most affected | 54 | 14 | 24 | Specific engagement | 5
C#CCN(CC(=O)N(CCNC(=O)CCCC[C@H]1SC[C@H]2NC(=O)N[C@H]21)CC(N)=O)C(=O)CN(CCC)C(=O)CN(CCNC(=O)CCCc1ccc(N(CCCl)CCCl)cc1)C(C)=O [compound 3] (Ac-[N(2-Aminoethyl)Gly](Chlorambucil)[NPrGly][Gly(N-propargyl)][N(2-Aminoethyl)Gly](Biotinyl(3aR,4R,6aS))-NH2) | – | No effect | – | – | no effect | – | – | – | – | – | – | – | no pulldown | –
